Measurements: US7063946B2, “Methods, reagents, kits and apparatus for protein function analysis” (Meso Scale Technologies, LLC., priority 2001, dated 2006)

Legend:
Format in all cases: biochemical
FGFR1 = molecular target: T1, FGFR1 (Homo sapiens, UniProt P11362); assay: Kinase inhibitor profiling, pEY phosphorylation
T1 construct: specificity data for proteins generated from a library of eighteen full-length clones; host or cells: rabbit reticulocyte lysate, TnT coupled transcription/translation

Kdr = molecular target: T2, Kdr (Mus musculus, UniProt P35918); assay: Kinase inhibitor profiling, autophosphorylation
T2 construct: specificity data for proteins generated from a library of eighteen full-length clones; biotin on random lysines (biotin-Lys-tRNA); host or cells: rabbit reticulocyte lysate, coupled transcription/translation (TnT, Promega)
Method: Proteins were produced from DNA plasmids of Mock Luciferase, Promega, tyrosine kinase clone Spleen Tyrosine kinase (SYK, IMAGE ID# 3870426) and Eph receptor-A7 (EphA7, IMAGE ID# 3991628) (Incyte Genomics, CA) and immobilized on streptavidin or avidin coated NPT-IPR plates as described in the Example 7. To promote autophosphorylation in these immobilized and purified proteins, Mn++ ions were added in a 50 μl reaction containing 5 mM MgCl2, 5 mM MnCl2, 100 μM ATP, 25 mM Tris-HCl buffer pH 7.4, 0.05 mM Na3VO4, 0.004% TritonX-100, 2 mM DTT and EDTA-free protease inhibitor (Roche Molecular Biochemicals). This mixture was incubated with shaking at room temperature overnight to allow autophosphorylation. Following this incubation, wells were washed 2 times with TT-buffer and 2 times with water. Following this step, 50 ng Sulfo-TAG labeled anti-phosphotyrosine in buffer containing 25 mM Tris-HCl buffer pH 7.4, 5 mM MgCl2, 0.05 mM Na3VO4, 0.004% TritonX-100, 2 mM DTT and 0.05% IgG in a final volume of 50 μl was added followed by incubation at room temperature for 45 min. The unbound reagents were removed by one time washing with water, and the TAG label was detected in presence of 150 μl IPR assay buffer (0.4 mM Gly—Gly buffer, pH 7.8, 1 mM EDTA, 0.1 M TPA). The ECL signals were measured using an imaging plate reader.
The unbound components of the translation reaction (including any endogenous kinases) were removed by 3 washes with TT-buffer (25 mM Tris-HCl buffer pH 7.4 and 0.004% Triton), two five minutes washes with high-salt wash buffer (25 mM Tris-HCl buffer pH 7.4, 0.004% Triton, 1M NaCl and 5 mM DTT) and 3 washes with TT-buffer. […] The mixture was incubated at room temperature for 10 mm before starting the kinase reaction by adding 25 μl of 200 μM ATP in buffer A. This mixture was incubated with intermittent shaking at room temperature for 2 hours to overnight to allow (a) phosphorylation of the pEY substrate and (b) autophosphorylation of the immobilized kinases. Autophosphorylation and phosphorylation of the pEY was measured as described in Examples 7 and 8.
The ECL signal in control wells produced by tyrosine kinases was compared to the wells containing inhibitor compounds.

BTK = molecular target: T3, BTK (Homo sapiens, UniProt Q06187); assay: Kinase inhibitor profiling, autophosphorylation
T3 construct: specificity data for proteins generated from a library of eighteen full-length clones; host or cells: rabbit reticulocyte lysate, TnT coupled in vitro transcription/translation (cell-free)
T3 sequence (Q06187 whole entry): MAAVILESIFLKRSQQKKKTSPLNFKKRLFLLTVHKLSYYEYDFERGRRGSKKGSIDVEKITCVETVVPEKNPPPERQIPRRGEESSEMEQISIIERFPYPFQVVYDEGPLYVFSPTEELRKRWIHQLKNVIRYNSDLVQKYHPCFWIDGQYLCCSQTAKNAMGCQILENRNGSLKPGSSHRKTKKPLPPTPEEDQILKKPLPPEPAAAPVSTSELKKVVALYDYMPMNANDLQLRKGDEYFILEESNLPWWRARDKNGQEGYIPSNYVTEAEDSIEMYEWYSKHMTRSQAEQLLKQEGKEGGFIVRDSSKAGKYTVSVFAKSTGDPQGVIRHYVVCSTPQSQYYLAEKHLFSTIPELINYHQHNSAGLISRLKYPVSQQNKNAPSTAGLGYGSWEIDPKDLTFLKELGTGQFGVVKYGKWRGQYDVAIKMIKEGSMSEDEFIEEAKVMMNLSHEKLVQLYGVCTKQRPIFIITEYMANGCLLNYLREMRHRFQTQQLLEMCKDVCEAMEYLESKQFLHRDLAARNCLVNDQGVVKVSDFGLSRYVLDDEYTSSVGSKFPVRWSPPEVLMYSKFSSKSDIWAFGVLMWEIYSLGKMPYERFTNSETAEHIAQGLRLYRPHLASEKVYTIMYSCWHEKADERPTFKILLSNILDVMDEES

T1 sequence (P11362 22-822): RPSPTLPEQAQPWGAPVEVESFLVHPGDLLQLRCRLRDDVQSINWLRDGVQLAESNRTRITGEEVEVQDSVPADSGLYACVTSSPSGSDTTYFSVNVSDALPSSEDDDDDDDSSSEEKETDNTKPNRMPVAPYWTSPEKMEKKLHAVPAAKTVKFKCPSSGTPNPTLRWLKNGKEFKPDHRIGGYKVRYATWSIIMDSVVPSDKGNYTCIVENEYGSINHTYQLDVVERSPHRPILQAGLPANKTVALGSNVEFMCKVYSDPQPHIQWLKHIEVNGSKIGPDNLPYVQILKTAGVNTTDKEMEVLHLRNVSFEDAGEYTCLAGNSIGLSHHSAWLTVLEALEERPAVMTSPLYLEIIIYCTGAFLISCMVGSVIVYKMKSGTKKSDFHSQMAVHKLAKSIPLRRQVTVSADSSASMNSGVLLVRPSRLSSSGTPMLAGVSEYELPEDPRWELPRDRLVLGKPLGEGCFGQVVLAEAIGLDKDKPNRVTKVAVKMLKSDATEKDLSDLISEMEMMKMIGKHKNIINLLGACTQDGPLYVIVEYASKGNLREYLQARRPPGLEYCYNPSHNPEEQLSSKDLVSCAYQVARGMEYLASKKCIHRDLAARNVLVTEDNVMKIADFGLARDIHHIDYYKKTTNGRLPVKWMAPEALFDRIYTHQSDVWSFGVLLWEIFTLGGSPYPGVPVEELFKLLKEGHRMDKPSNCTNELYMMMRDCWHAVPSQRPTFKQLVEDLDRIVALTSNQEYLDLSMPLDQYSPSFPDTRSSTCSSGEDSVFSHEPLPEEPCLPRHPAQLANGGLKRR
T2 sequence (P35918 20-1345): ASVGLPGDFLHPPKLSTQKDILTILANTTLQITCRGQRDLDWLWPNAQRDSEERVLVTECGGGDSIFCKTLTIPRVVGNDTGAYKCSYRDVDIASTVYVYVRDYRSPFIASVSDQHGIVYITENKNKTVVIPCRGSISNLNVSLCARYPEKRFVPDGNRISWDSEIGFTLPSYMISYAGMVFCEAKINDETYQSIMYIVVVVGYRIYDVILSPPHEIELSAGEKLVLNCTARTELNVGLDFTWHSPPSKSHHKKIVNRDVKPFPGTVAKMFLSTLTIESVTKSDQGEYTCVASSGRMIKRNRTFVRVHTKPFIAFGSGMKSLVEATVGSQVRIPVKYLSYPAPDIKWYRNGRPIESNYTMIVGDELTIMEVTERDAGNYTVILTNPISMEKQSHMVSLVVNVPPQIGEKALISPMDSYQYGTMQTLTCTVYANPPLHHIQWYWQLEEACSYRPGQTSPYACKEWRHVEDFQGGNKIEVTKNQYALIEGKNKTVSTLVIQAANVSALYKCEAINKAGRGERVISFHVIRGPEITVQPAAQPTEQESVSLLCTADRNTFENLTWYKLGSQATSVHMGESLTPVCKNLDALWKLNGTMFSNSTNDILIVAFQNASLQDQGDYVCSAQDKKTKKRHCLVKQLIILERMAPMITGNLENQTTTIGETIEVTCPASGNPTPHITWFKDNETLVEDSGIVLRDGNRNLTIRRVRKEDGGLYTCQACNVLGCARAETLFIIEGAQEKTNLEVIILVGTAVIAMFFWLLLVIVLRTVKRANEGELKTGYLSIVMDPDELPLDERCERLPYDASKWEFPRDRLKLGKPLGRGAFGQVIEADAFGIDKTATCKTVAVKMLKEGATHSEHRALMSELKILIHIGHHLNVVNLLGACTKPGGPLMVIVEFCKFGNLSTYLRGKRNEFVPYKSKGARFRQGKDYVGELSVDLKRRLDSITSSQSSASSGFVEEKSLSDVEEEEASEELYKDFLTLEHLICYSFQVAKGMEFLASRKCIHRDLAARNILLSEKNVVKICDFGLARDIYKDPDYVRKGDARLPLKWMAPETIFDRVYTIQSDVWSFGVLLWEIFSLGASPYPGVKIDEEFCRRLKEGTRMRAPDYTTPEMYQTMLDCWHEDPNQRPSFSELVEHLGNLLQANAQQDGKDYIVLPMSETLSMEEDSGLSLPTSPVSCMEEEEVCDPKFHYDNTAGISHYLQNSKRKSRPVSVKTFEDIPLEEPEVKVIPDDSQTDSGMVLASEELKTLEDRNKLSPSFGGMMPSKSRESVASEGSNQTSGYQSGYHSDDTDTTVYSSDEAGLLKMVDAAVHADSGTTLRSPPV

Molecule | Inhibition specificity towards pEY phosphorylation at 10X IC50, FGFR1 (FGFR1) | Inhibition specificity towards Autophosphorylation at 10X IC50, Kdr (Kdr) | Inhibition specificity towards Autophosphorylation at 10X IC50, BTK (BTK)
Cc1ccc(-c2nn(C(C)(C)C)c3ncnc(N)c23)cc1 [PP1] | L (low inhibition (“L”=between 50–75% of the activity remaining)) | L (low inhibition (“L”=between 50–75% of the activity remaining)) | 
COC(=O)c1ccc(NCc2cc(O)ccc2O)cc1 [AG-957] | L (low inhibition (“L”=between 50–75% of the activity remaining)) | L (low inhibition (“L”=between 50–75% of the activity remaining)) | L (low inhibition (“L”=between 50–75% of the activity remaining))
COc1cc2ncnc(Nc3ccc(O)cc3)c2cc1OC [WHI-P131] | L (low inhibition (“L”=between 50–75% of the activity remaining)) | M (medium inhibition (“M”=between 25 to 50% of the activity remaining)) | 
COc1cc2ncnc(Nc3ccc(Cl)cc3F)c2cc1OC [VEGFR inhibitor] |  | M (medium inhibition (“M”=between 25 to 50% of the activity remaining)) | L (low inhibition (“L”=between 50–75% of the activity remaining))
Cc1cc2ncc(-c3ccc(O)c(O)c3)nc2cc1C [AG-1433] | H (high inhibition (“H”=less than 25% of the activity remaining)) | H (high inhibition (“H”=less than 25% of the activity remaining)) | H (high inhibition (“H”=less than 25% of the activity remaining))
Erbstatin analog |  | L (low inhibition (“L”=between 50–75% of the activity remaining)) | L (low inhibition (“L”=between 50–75% of the activity remaining))
COc1c(C=O)c(O)cc2c1C(=O)c1ccccc1C2=O [Damnacanthal] | H (high inhibition (“H”=less than 25% of the activity remaining)) | H (high inhibition (“H”=less than 25% of the activity remaining)) | H (high inhibition (“H”=less than 25% of the activity remaining))
CC(C)(C)c1cc(C=C(C#N)C#N)cc(Br)c1O [AG-1024] | L (low inhibition (“L”=between 50–75% of the activity remaining)) |  | L (low inhibition (“L”=between 50–75% of the activity remaining))
